# According to PubChem BioAssay (NCI):
#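 Values below derive from 48-hour exposures of cells grown in 96-well plates, with endpoints linearly interpolated between the two concentrations bracketing the appropriate inhibition level. At the GI50, growth is halved. TGI is the concentration that stops growth completely.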
# Experiments:
# Test in all cases: NCI tumour cell line growth inhibition, 48 h
# NCI-H460 lung = test system: NCI-H460 lung
# NCI-H522 lung = test system: NCI-H522 lung
# NCI/ADR-RES ovarian = test system: NCI/ADR-RES ovarian
# OVCAR-3 ovarian = test system: OVCAR-3 ovarian
# OVCAR-5 ovarian = test system: OVCAR-5 ovarian
# OVCAR-8 ovarian = test system: OVCAR-8 ovarian
# PC-3 prostate = test system: PC-3 prostate
# RPMI-8226 leukemia = test system: RPMI-8226 leukemia
# RXF 393 renal = test system: RXF 393 renal
# SF-268 CNS = test system: SF-268 CNS
# SF-295 CNS = test system: SF-295 CNS
# SF-539 CNS = test system: SF-539 CNS
# SK-MEL-2 melanoma = test system: SK-MEL-2 melanoma
# SK-MEL-28 melanoma = test system: SK-MEL-28 melanoma
# SK-MEL-5 melanoma = test system: SK-MEL-5 melanoma
# SK-OV-3 ovarian = test system: SK-OV-3 ovarian
# SN12C renal = test system: SN12C renal
# SNB-19 CNS = test system: SNB-19 CNS
# SNB-75 CNS = test system: SNB-75 CNS
# SR leukemia = test system: SR leukemia
# SW-620 colon = test system: SW-620 colon
# TK-10 renal = test system: TK-10 renal
# U251 CNS = test system: U251 CNS
# UACC-257 melanoma = test system: UACC-257 melanoma
# UACC-62 melanoma = test system: UACC-62 melanoma
# UO-31 renal = test system: UO-31 renal
smiles,measurement,setting,value
Cc1ccc2cnc(N)c(C#Cc3cncc(C(=O)Nc4ccc(CN5CCN(C)CC5)c(C(F)(F)F)c4)c3)c2c1,GI50,NCI-H460 lung,212 nM
same,TGI,NCI-H460 lung,819 nM
same,GI50,NCI-H522 lung,249 nM
same,TGI,NCI-H522 lung,1020 nM
same,GI50,NCI/ADR-RES ovarian,746 nM
same,TGI,NCI/ADR-RES ovarian,2090 nM
same,GI50,OVCAR-3 ovarian,633 nM
same,TGI,OVCAR-3 ovarian,1290 nM
same,GI50,OVCAR-5 ovarian,579 nM
same,TGI,OVCAR-5 ovarian,1240 nM
same,GI50,OVCAR-8 ovarian,579 nM
same,TGI,OVCAR-8 ovarian,1220 nM
same,GI50,PC-3 prostate,679 nM
same,TGI,PC-3 prostate,1430 nM
same,GI50,RPMI-8226 leukemia,693 nM
same,TGI,RPMI-8226 leukemia,1970 nM
same,GI50,RXF 393 renal,632 nM
same,TGI,RXF 393 renal,1290 nM
same,GI50,SF-268 CNS,479 nM
same,TGI,SF-268 CNS,1270 nM
same,GI50,SF-295 CNS,828 nM
same,TGI,SF-295 CNS,1570 nM
same,GI50,SF-539 CNS,275 nM
same,TGI,SF-539 CNS,877 nM
same,GI50,SK-MEL-2 melanoma,660 nM
same,TGI,SK-MEL-2 melanoma,1630 nM
same,GI50,SK-MEL-28 melanoma,616 nM
same,TGI,SK-MEL-28 melanoma,1250 nM
same,GI50,SK-MEL-5 melanoma,813 nM
same,TGI,SK-MEL-5 melanoma,1510 nM
same,GI50,SK-OV-3 ovarian,869 nM
same,TGI,SK-OV-3 ovarian,1630 nM
same,GI50,SN12C renal,387 nM
same,TGI,SN12C renal,1070 nM
same,GI50,SNB-19 CNS,786 nM
same,TGI,SNB-19 CNS,1460 nM
same,GI50,SNB-75 CNS,716 nM
same,TGI,SNB-75 CNS,1440 nM
same,GI50,SR leukemia,162 nM
same,TGI,SR leukemia,1300 nM
same,GI50,SW-620 colon,131 nM
same,TGI,SW-620 colon,540 nM
same,GI50,TK-10 renal,642 nM
same,TGI,TK-10 renal,1290 nM
same,GI50,U251 CNS,590 nM
same,TGI,U251 CNS,1210 nM
same,GI50,UACC-257 melanoma,605 nM
same,TGI,UACC-257 melanoma,1380 nM
same,GI50,UACC-62 melanoma,628 nM
same,TGI,UACC-62 melanoma,1350 nM
same,GI50,UO-31 renal,589 nM
same,TGI,UO-31 renal,1220 nM
